Experimental data published in publication PMC9179154, “Identification of acetylated diether lipids in halophilic Archaea” (MicrobiologyOpen, 2022).

Target: T1, hvYvoF (YvoF from Haloferax volcanii) (Haloferax volcanii, UniProt D4GZM3)
T1 construct: full length, C-terminal His6 tag, pTA1228 vector, NdeI/XhoI; homologous expression in H. volcanii H1424, IMAC; printed cloning primers encode N-terminus MTDDDAAP and C-terminus DETDGA before LE of the XhoI site
Experiment: […]-GGG acetylation, TLC and autoradiography
Type: biochemical
Settings: acetyl-CoA 0.25 mM, MgCl2 10 mM, 1300 mM NaCl, 0.2% Tween80, pH 8.0, 40 °C; labelled compound

T1 sequence (D4GZM3 entry or part of it): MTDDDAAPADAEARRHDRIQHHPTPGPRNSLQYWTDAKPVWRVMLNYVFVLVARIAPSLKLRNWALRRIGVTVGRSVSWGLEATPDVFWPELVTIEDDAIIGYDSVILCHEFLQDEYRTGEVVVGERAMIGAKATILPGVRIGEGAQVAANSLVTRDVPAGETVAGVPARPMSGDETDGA

Structure (SMILES): CC(C)=CCC/C(C)=C/CC/C(C)=C/CC/C(C)=C/COC[C@H](O)CO [GGG, geranylgeranylglycerol]
- 14C-GGG acetylation, TLC and autoradiography: GGG was gradually diacetylated (to Ac2‐GGG) by hvYvoF with increasing incubation time
